Molecular target: T1, Lp-PLA2 in human plasma (Homo sapiens, UniProt Q13093)
T1 construct: from tissue; host or cells: pooled human plasma
T1 sequence (Q13093 22-441): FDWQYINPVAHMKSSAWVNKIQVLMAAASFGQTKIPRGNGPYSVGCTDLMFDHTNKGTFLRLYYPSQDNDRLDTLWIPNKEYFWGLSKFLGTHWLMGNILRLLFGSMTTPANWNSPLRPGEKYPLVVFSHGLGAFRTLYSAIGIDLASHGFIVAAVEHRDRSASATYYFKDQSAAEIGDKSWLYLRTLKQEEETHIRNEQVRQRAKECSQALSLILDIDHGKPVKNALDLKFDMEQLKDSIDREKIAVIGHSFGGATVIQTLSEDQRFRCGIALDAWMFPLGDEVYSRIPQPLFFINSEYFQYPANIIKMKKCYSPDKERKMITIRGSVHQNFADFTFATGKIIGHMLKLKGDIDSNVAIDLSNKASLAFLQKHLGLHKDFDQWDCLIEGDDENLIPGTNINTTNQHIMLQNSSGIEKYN
Test: Lp-PLA2 human plasma assay (Thio-PAF assay)
Type: biochemical
Conditions: pooled human plasma; read-out: pIC50 values in the thio-PAF assay (converted)
Description: The human plasma assay utilizes a thioester analog of PAF (phosphatidylcholine), where hydrolysis yields to the formation of a phospholipid containing a free thiol group. The amount of thiol is quantitated continuously by reacting with CPM (7-diethylamino-3-(4′-maleimidylphenyl)-4-methylcoumarin), a maleimide which increases in fluoresence after Michael addition of thiols. This assay may detect the activity of Lp-PLA2 in human plasma, as determined by specific inhibition by Lp-PLA2 inhibitors.
The thio-PAF assay was run as a quenched 15 μL assay. Compounds source plate was prepared by making 1:3 (by volume) serial dilution of the compounds into pure DMSO on 384-well microplate. 0.01 μL of compounds on compound source plate were transferred to 384 well Greiner 784076 (black) low-volume plates by ECHO liquid dispenser. 8 μL pooled human plasma, which was previously aliquoted and frozen, was added. Plates were centrifuged for 10 sec at 500 rpm. After 30 minutes preincubation, 2 μL of substrate solution comprising 2.5 mM 2-thio-PAF [from ethanol stock], 32 μM CPM [from a DMSO stock] and 3.2 mM NEM (N-ethylmaleimide) [made fresh daily in DMSO] in assay buffer of 50 mM HEPES, pH 7.4, 150 mM NaCl, 1 mM CHAPS was added to 384 well Greiner 784076 (black) low-volume plates by BRAVO liquid handling station. After 2 mins, reaction was quenched with 5 μL of 5% aqueous trifluoroacetic acid (TFA). Plates were covered to protect from light and incubated for 40 min at room temperature. Plates were read at ex: 380/em: 485 using-Envision microplate reader. pIC50 data, curve and QC analysis was conducted by using XLFit module in Excel.

IC50 [nM] | SMILES
≤ 100 | CC1CCn2c(cc(OCc3ccc(F)cc3)nc2=O)N1C (stereo not shown) [E9, 8-((4-fluorobenzyl)oxy)-1,2-dimethyl-3,4-dihydro-1H-pyrimido[1,6-a]pyrimidin-6(2H)-one]
≤ 100 | CC1CCn2c(cc(OCc3cccc(C#N)c3)nc2=O)N1C (stereo not shown) [E10, 3-(((1,2-dimethyl-6-oxo-2,3,4,6-tetrahydro-1H-pyrimido[1,6-a]pyrimidin-8-yl)oxy)methyl)benzonitrile]
≤ 100 | CC1CCn2c(cc(OCc3cccc(F)c3)nc2=O)N1C (stereo not shown) [E12, 8-((3-fluorobenzyl)oxy)-1,2-dimethyl-3,4-dihydro-1H-pyrimido[1,6-a]pyrimidin-6(2H)-one]
≤ 100 | C[C@@H]1CCn2c(cc(OCc3cc(F)c(F)c(F)c3)nc2=O)N1C [E16, (R)-1,2-dimethyl-8-((3,4,5-trifluorobenzyl)oxy)-3,4-dihydro-1H-pyrimido[1,6-a]pyrimidin-6(2H)-one]
≤ 100 | C[C@@H]1CCn2c(cc(OCc3cccc(F)c3F)nc2=O)N1C [E18, (R)-8-((2,3-difluorobenzyl)oxy)-1,2-dimethyl-3,4-dihydro-1H-pyrimido[1,6-a]pyrimidin-6(2H)-one]
≤ 100 | [2H]C([2H])(Oc1cc2n(c(=O)n1)CC[C@@H](C)N2C)c1cccc(F)c1F [E19, (R)-8-((2,3-difluorophenyl)dideuteromethoxy)-1,2-dimethyl-3,4-dihydro-1H-pyrimido[1,6-a]pyrimidin-6(2H)-one]
≤ 100 | C[C@@H]1CCn2c(cc(OCc3ccc(F)cc3)nc2=O)N1C [E20, (R)-8-((4-fluorobenzyl)oxy)-1,2-dimethyl-3,4-dihydro-1H-pyrimido[1,6-a]pyrimidin-6(2H)-one]
≤ 100 | C[C@@H]1CCn2c(cc(OCc3ccc(F)cc3)nc2=O)N1 [E27, (R)-8-((4-fluorobenzyl)oxy)-2-methyl-3,4-dihydro-1H-pyrimido[1,6-a]pyrimidin-6(2H)-one]
≤ 100 | [2H]C([2H])(Oc1cc2n(c(=O)n1)CC[C@H](C)N2C)c1cc(F)c(F)c(F)c1 [E36, (S)-8-(dideutero(3,4,5-trifluorophenyl)methoxy)-1,2-dimethyl-3,4-dihydro-1H-pyrimido[1,6-a]pyrimidin-6(2H)-one]
≤ 100 | C[C@H]1CCn2c(cc(OCc3ccc(F)c(F)c3)nc2=O)N1 [E40, (S)-8-((3,4-difluorobenzyl)oxy)-2-methyl-3,4-dihydro-1H-pyrimido[1,6-a]pyrimidin-6(2H)-one]
≤ 100 | C[C@H]1CCn2c(cc(OCc3cc(F)c(F)cc3F)nc2=O)N1C [E42, (S)-1,2-dimethyl-8-((2,4,5-trifluorobenzyl)oxy)-3,4-dihydro-1H-pyrimido[1,6-a]pyrimidin-6(2H)-one]
≤ 10 | C[C@H]1CCn2c(cc(OCc3cc(F)c(F)c(F)c3)nc2=O)N1 [E45, (S)-2-methyl-8-((3,4,5-trifluorobenzyl)oxy)-3,4-dihydro-1H-pyrimido[1,6-a]pyrimidin-6(2H)-one]
≤ 100 | [2H]C([2H])(Oc1cc2n(c(=O)n1)CC[C@H](C)N2C)c1cc(F)cc(F)c1 [E49, (S)-8-((3,5-difluorophenyl)dideuteromethoxy)-1,2-dimethyl-3,4-dihydro-1H-pyrimido[1,6-a]pyrimidin-6(2H)-one]
≤ 100 | [2H]C([2H])(Oc1cc2n(c(=O)n1)CC[C@@H](C)N2C)c1cc(F)cc(F)c1 [E50, (R)-8-((3,5-difluorophenyl)dideuteromethoxy)-1,2-dimethyl-3,4-dihydro-1H-pyrimido[1,6-a]pyrimidin-6(2H)-one]
≤ 100 | CCN1c2cc(OCc3cc(F)c(F)cc3F)nc(=O)n2CC[C@@H]1C [E52, (S)-1-ethyl-2-methyl-8-((2,4,5-trifluorobenzyl)oxy)-3,4-dihydro-1H-pyrimido[1,6-a]pyrimidin-6(2H)-one]
≤ 100 | CCN1c2cc(OCc3cccc(F)c3F)nc(=O)n2CC[C@@H]1C [E53, (S)-8-((2,3-difluorobenzyl)oxy)-1-ethyl-2-methyl-3,4-dihydro-1H-pyrimido[1,6-a]pyrimidin-6(2H)-one]

— US20150344485A1, “BICYCLIC PYRIMIDONE COMPOUNDS AS INHIBITORS OF LP-PLA2” (GLAXOSMITHKLINE INTELLECTUAL PROPERTY DEVELOPMENT LIMITED, priority 2013, published 2015)
